Measurements reported in patent US9890185B2, “Urea derivatives useful as kinase inhibitors” (Respivert Limited, priority 2013, dated 2018).

How the values were obtained:
PBMCs [1] = experiment: LPS-induced IL-8 release in PBMC cells (assay b); type: cell-based, human; details: Homo sapiens, PBMC; LPS-stimulated PBMCs; read-out: IC50 Values for Inhibition of Cytokine Release, PBMCs IL-8
How it was run: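 Cytokines (TNFα, IL-8) in supernatants were quantified by sandwich ELISA after a 24 h challenge with 1 ng/mL E. coli LPS at 37° C, 5% CO2. Healthy-donor PBMCs had been exposed to compound for 2 h beforehand. IC50 values were fitted from the concentration-response curves.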

PBMCs [2] = experiment: IL-2 release in CD3/CD28 stimulated PBMC cells (assay c); type: cell-based; details: Homo sapiens, read-out: IC50 Values for Inhibition of Cytokine Release, PBMCs IL-2
How it was run: (§1)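 Compound added to human PBMCs on anti-CD3/anti-CD28-coated wells (0.3 and 3 μg/mL respectively); 3-day culture. Sandwich ELISA of supernatant IL-2 or IFN gamma gives the read-out, with IC50 derived from the dose-response curve.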

c-Src = c-Src (Homo sapiens (Human), UniProt P12931); experiment: c-Src enzyme inhibition (FRET, Z-LYTE); type: biochemical
How it was run: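 First, compound and enzyme incubate 2 hr at room temperature. Next, FRET peptide (8 μM added solution) and ATP go in for 1 hr, using an 800 μM solution for c-Src and 60 μM for Syk. Finally protease develops for 1 hr; IC50 is fitted to inhibition versus concentration.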

PBMCs [3] = experiment: IFN gamma release in CD3/CD28 stimulated PBMC cells (assay c); type: cell-based; details: Homo sapiens, read-out: IC50 Values for Inhibition of Cytokine Release, PBMCs IFNγ
How it was run: as §1

Sequence of c-Src (P12931 whole entry, looked up): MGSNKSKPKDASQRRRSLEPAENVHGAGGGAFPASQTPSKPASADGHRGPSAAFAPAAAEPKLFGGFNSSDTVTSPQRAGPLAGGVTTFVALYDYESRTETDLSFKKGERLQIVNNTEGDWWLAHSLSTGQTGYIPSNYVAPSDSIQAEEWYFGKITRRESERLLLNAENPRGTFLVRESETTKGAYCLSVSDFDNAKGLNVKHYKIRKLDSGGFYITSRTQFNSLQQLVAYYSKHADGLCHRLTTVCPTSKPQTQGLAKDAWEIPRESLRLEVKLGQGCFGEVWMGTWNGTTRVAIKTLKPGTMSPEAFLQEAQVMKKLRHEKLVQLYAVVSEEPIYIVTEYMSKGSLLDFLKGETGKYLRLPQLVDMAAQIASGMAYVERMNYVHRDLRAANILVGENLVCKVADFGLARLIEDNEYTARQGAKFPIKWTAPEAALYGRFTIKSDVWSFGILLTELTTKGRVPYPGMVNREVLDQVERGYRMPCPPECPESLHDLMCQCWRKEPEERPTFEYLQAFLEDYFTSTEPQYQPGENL

Row | SMILES | IC50 (c-Src) [nM] | IC50 (PBMCs [1]) [nM] | IC50 (PBMCs [2]) [nM] | IC50 (PBMCs [3]) [nM]
1 | COc1c(NC(=O)Nc2ccc(Oc3ccnc(Nc4cccnc4)c3)c3ccccc23)cc(C(C)(C)C)cc1P(C)(C)=O [15(ad), 1-(5-(tert-butyl)-3-(dimethylphosphoryl)-2-methoxyphenyl)-3-(4-((2-(pyridin-3-ylamino)pyridin-4-yl)oxy)naphthalen-1-yl)urea] | 129 | 3.7 | 1110 | 16.2
2 | COc1cc(F)cc(Nc2cc(Oc3ccc(NC(=O)Nc4cc(C(C)(C)C)cc(P(C)(C)=O)c4OC)c4ccccc34)ccn2)c1 [15(an), 1-(5-(tert-butyl)-3-(dimethylphosphoryl)-2-methoxyphenyl)-3-(4-((2-((3-fluoro-5-methoxyphenyl)amino)pyridin-4-yl)oxy)naphthalen-1-yl)urea] | 116 | 2.7 | 251 | 6.2
3 | COc1c(NC(=O)Nc2ccc(Oc3ccnc(Nc4cnn(C)n4)n3)c3ccccc23)cc(C(C)(C)C)cc1P(C)(C)=O [15(x), 1-(5-(tert-butyl)-3-(dimethylphosphoryl)-2-methoxyphenyl)-3-(4-((2-((2-methyl-2H-1,2,3-triazol-4-yl)amino)pyrimidin-4-yl)oxy)naphthalen-1-yl)urea] | 356 | 6.1 | 624 | 35.9
4 | COc1c(CC(N)=O)cc(C(C)(C)C)cc1NC(=O)Nc1ccc(Oc2ccnc(NCc3ccccn3)c2)c2ccccc12 [38(d), 2-(5-(tert-Butyl)-2-methoxy-3-(3-(4-((2-((pyridin-2-ylmethyl)amino)pyridin-4-yl)oxy)naphthalen-1-yl)ureido)phenyl)acetamide] | > 1570 | 4.5 | 1650 | 106
5 | CNC(=O)Cc1cc(C(C)(C)C)cc(NC(=O)Nc2ccc(Oc3ccnc(Nc4cccc(OC)c4)c3)c3ccccc23)c1OC [38(h), 2-(5-(tert-Butyl)-2-methoxy-3-(3-(4-((2-((3-methoxyphenyl)amino)pyridin-4-yl)oxy)naphthalen-1-yl)ureido)phenyl)-N-methylacetamide] | 181 | 2.7 | 160 | 17.7
6 | COc1cc(Nc2cc(Oc3ccc(NC(=O)Nc4cc(C(C)(C)C)cc(CC(N)=O)c4OC)c4ccccc34)ccn2)ccn1 [38(k), 2-(5-(tert-Butyl)-2-methoxy-3-(3-(4-((2-((2-methoxypyridin-4-yl)amino)pyridin-4-yl)oxy)naphthalen-1-yl)ureido)phenyl)acetamide] | 166 | 2.1 | 281 | 14.6
7 | COc1c(CNC(C)=O)cc(C(C)(C)C)cc1NC(=O)Nc1ccc(Oc2ccnc(NCc3ccccn3)c2)c2ccccc12 [38(q), N-(5-(tert-Butyl)-2-methoxy-3-(3-(4-((2-((pyridin-2-ylmethyl)amino)pyridin-4-yl)oxy)naphthalen-1-yl)ureido)benzyl)acetamide] | 383 | 1.4 | 443 | 26.1
8 | COCCOCCOCCOc1cc(Nc2nccc(Oc3ccc(NC(=O)Nc4cc(C(C)(C)C)cc(C(=O)NCCN5CCOCC5)c4OC)c4ccccc34)n2)cc(OC)c1 [Example 8, 5-(tert-Butyl)-2-methoxy-3-(3-(4-((2-((3-methoxy-5-(2-(2-(2-methoxyethoxy)ethoxy)-ethoxy)phenyl)amino)pyrimidin-4-yl)oxy)naphthalen-1-yl)ureido)-N-(2-morpholinoethyl)-benzamide] | 14 | 1.3 | 41.4 | 2.2
9 | COc1c(CP(C)(C)=O)cc(C(C)(C)C)cc1NC(=O)Nc1ccc(Oc2ccnc(Nc3ccccc3)c2)c2ccccc12 [Example 24, 1-(5-(tert-Butyl)-3-((dimethylphosphoryl)methyl)-2-methoxyphenyl)-3-(4-((2-(phenylamino)-pyridin-4-yl)oxy)naphthalen-1-yl)urea] | 168 | 3.1 | 276 | 64
10 | COc1c(C[S+](C)[O-])cc(C(C)(C)C)cc1NC(=O)Nc1ccc(Oc2ccnc(Nc3ccccc3)c2)c2ccccc12 (centres unmarked) [Example 25, 1-(5-(tert-Butyl)-2-methoxy-3-((methylsulfinyl)methyl)phenyl)-3-(4-((2-(phenylamino)pyridin-4-yl)oxy)naphthalen-1-yl)urea] | 224 | 5.3 | 175 | 29.5
11 | COc1c(CNC(C)=O)cc(C(C)(C)C)cc1NC(=O)Nc1ccc(Oc2ccnc(Nc3ccccc3)c2)c2ccccc12 [Example 35, N-(5-(tert-Butyl)-2-methoxy-3-(3-(4-((2-(phenylamino)pyridin-4-yl)oxy)naphthalen-1-yl)ureido)benzyl)acetamide] | 112 | 3.4 | 221 | 10.9

The next lines start with results.

Row | IC50 (c-Src) [nM] | SMILES | IC50 (PBMCs [1]) [nM] | IC50 (PBMCs [2]) [nM] | IC50 (PBMCs [3]) [nM]
12 | 33 | COc1cc(CO)cc(Nc2cc(Oc3ccc(NC(=O)Nc4cc(C(C)(C)C)cc(CC(N)=O)c4OC)c4ccccc34)ccn2)c1 [38(m), 2-(5-(tert-Butyl)-3-(3-(4-((2-((3-(hydroxymethyl)-5-methoxyphenyl)amino)pyridin-4-yl)oxy)naphthalen-1-yl)ureido)-2-methoxyphenyl)acetamide] | 2 | 93.8 | 7
13 | 95 | COc1cncc(Nc2cc(Oc3ccc(NC(=O)Nc4cc(C(C)(C)C)cc(CC(N)=O)c4OC)c4ccccc34)ccn2)c1 [38(n), 2-(5-(tert-butyl)-2-methoxy-3-(3-(4-((2-((5-methoxypyridin-3-yl)amino)pyridin-4-yl)oxy)naphthalen-1-yl)ureido)phenyl)acetamide] | 1.4 | 348 | 14.1
14 | 47 | COc1c(CC(N)=O)cc(C(C)(C)C)cc1NC(=O)Nc1ccc(Oc2ccnc(Nc3ccn(C)n3)c2)c2ccccc12 [38(o), 2-(5-(tert-Butyl)-2-methoxy-3-(3-(4-((2-((1-methyl-1H-pyrazol-3-yl)amino)pyridin-4-yl)oxy)naphthalen-1-yl)ureido)phenyl)acetamide] | 1.3 | 60.8 | 7.8
15 | 48 | COc1c(NC(=O)Nc2ccc(Oc3ccnc(Nc4cc(C)cc(C)c4)c3)c3ccccc23)cc(C(C)(C)C)cc1P(C)(C)=O [Example 28, 1-(5-(tert-Butyl)-3-(dimethylphosphoryl)-2-methoxyphenyl)-3-(4-((2-((3,5-dimethylphenyl)-amino)pyridin-4-yl)oxy)naphthalen-1-yl)urea] | 2.5 | 63.3 | 1.4
16 | 63 | COc1cccc(Nc2cc(Oc3ccc(NC(=O)Nc4cc(C(C)(C)C)cc(CC(N)=O)c4OC)c4ccccc34)ccn2)c1 [Example 33, 2-(5-(tert-Butyl)-2-methoxy-3-(3-(4-((2-((3-methoxyphenyl)amino)pyridin-4-yl)oxy)naphthalen-1-yl)ureido)phenyl)acetamide] | 1.7 | 117 | 11
17 | 20 | COc1cc(Nc2cc(Oc3ccc(NC(=O)Nc4cc(C(C)(C)C)cc([S+](C)[O-])c4OC)c4ccccc34)ccn2)ccc1C(=O)NCCN1CCOCC1 (centres unmarked) [Example 72, 4-((4-((4-(3-(5-(tert-Butyl)-2-methoxy-3-(methylsulfinyl)phenyl)ureido)naphthalen-1-yl)oxy)pyridin-2-yl)amino)-2-methoxy-N-(2-morpholinoethyl)benzamide] | 2.1 | 156 | 7.5
